# Data taken from doi:10.1101/2025.05.02.651384v1 (biorxiv, 2025).
# Target: T1, HCAR1 (GPR81) (Homo sapiens, UniProt Q9BXC0)
# Experiment: ebBRET Gαz activation
# Assay type: cell-based
# Conditions: not given
# T1 sequence (Q9BXC0 whole entry): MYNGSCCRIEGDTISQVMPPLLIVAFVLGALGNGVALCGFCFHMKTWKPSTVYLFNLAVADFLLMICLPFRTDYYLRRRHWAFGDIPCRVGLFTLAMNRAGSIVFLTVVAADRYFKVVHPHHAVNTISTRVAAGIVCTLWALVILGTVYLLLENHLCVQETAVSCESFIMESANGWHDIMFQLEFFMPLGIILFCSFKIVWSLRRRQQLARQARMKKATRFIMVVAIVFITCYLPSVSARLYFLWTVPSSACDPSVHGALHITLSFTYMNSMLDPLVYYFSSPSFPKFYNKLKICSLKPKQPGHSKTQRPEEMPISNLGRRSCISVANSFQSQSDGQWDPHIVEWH
row,SMILES,EC50
1,C[C@H](O)C(=O)O [(+)-lactic acid],1000 µM
2,"O=C(O)c1cc(O)cc(O)c1 [3,5-DHBA]",0.2 µM
3,CN1CCN(C(=O)Cc2sc(NC(=O)[C@H]3CC[C@H](C)CC3)nc2-c2cccs2)CC1 [GPR81 agonist 1],0.63 µM

# Target: T1, HCAR1 (GPR81)
# Experiment: ebBRET Gαi2 activation
# Assay type: cell-based
# Conditions: Gαi2, 37 °C, agonist
row,SMILES,EC50
1,CCOc1cc(Cl)c(C(=O)NC(=O)Nc2ncc(C)s2)cc1N1CCOCC1 [AZ2053],1.78 µM
2,CCOc1cc(Cl)c(-c2ccc(-c3nc4ccccc4s3)c(=O)[nH]2)cc1N1CCOCC1 [AZ9234],6.8 µM
3,CCOc1cc(Cl)c(C(=O)NC(=O)Nc2nc3c(s2)CCCC3)cc1N1CCOCC1 [AZ9091],2 µM
4,CCOc1cc(Cl)c(C(=O)NC(=O)Nc2nc3c(s2)CN(C(C)=O)CC3)cc1N1CCOCC1 [AZ4901],7.1 µM
